From US8853258B2, “C-linked hydroxamic acid derivatives useful as antibacterial agents” (Pfizer Inc., priority 2009, dated 2014) come the findings set out here.

Holding throughout (type): cell-based
For data set [1], the system named is Escherichia coli EC-1: VOGEL, mouse virulent. Kind of data set: MIC determination (CLSI), EC-1. Particulars: Escherichia coli EC-1 VOGEL, mouse virulent. As to the method:
(§1) The in vitro antibacterial activity of compounds described in the Examples was evaluated by minimum inhibitory concentration (MIC) testing according to Clinical and Laboratory Standards Institute (CLSI, formerly NCCLS) guidelines. See: Clinical and Laboratory Standards Institute. Methods for Dilution Antimicrobial Susceptibility Tests for Bacteria that Grow Aerobically; Approved Standard-Seventh Edition. CLSI document M7-A7 [ISBN 1-56238-587-9]. Clinical and Laboratory Standards Institute, 940 West Valley Road, Suite 1400, Wayne, Pa. 19087-1898 USA, 2006; also Clinical and Laboratory Standards Institute. Performance Standards for Antimicrobial Susceptibility Testing; Eighteenth Informational Supplement. CLSI document M100-S18 [ISBN1-56238-653-0]. Clinical and Laboratory Standards Institute.
(§2) The following bacterial strains were used in these MIC determinations:
3) Escherichia coli EC-1: VOGEL, mouse virulent labeled as EC-1 in Tables 1, 2 and 3;

Data set [2] deals with Acinetobacter baumanii/haemolyticus: Multidrug-resistant clinical isolate (AB-3167). Kind of data set: MIC determination (CLSI), AB-3167. The conditions noted are these: Acinetobacter baumanii/haemolyticus multidrug-resistant clinical isolate AB-3167. As to the method: as §1, §2
2) Acinetobacter baumanii/haemolyticus: Multidrug-resistant clinical isolate labeled as AB-3167 in Tables 1, 2 and 3;

Data set [3] deals with Klebsiella pneumoniae: Ciprofloxacin-resistant isolate, ESBL, clinical isolate (KP-3700). Kind of data set: MIC determination (CLSI), KP-3700. As to the method: as §1, §2
4) Klebsiella pneumoniae: Ciprofloxacin-resistant isolate, expresses extended-spectrum beta-lactamases (ESBL), clinical isolate, labeled as KP-3700 in Tables 1, 2, and 3.

Data set [4] has as its system Pseudomonas aeruginosa UI-18: Wild-type (PA-7). Kind of data set: MIC determination (CLSI), PA-7. Particulars: Pseudomonas aeruginosa UI-18 wild-type PA-7. How it is done: as §1, §2
1) Pseudomonas aeruginosa UI-18: Wild-type, labeled as PA-7 in Tables 1, 2 and 3;

Turning to `CC(CCc1ccc(-c2ccoc2)cc1)(C(=O)NO)S(C)(=O)=O` (centres unmarked) [Example 95], the “EC-1 MIC” value in data set [1] was 16 µg/mL. In data set [2], the “AB-3167 MIC” value is “≧64 mg/L”. Also, the “KP-3700 MIC” value in data set [3] was determined as 16 µg/mL. Moreover, the “PA-7 MIC” value in data set [4] was 4 µg/mL.

For `CC(CCc1ccc(-c2ccc(C(N)=O)cc2)cc1)(C(=O)NO)S(C)(=O)=O` (centres unmarked) [Example 96], in data set [1], the “EC-1 MIC” value is recorded as “≧64 mg/L”. Further, the “AB-3167 MIC” value in data set [2] was “≧64 mg/L”. Besides, the “KP-3700 MIC” value in data set [3] is recorded as “≧64 mg/L”. Also, the “PA-7 MIC” value in data set [4] is 8 µg/mL.

On to `CC(CCc1ccc(-c2cc(F)cc(F)c2)cc1)(C(=O)NO)S(C)(=O)=O` (centres unmarked) [Example 97], for which the “EC-1 MIC” value in data set [1] is 2 µg/mL. Further, in data set [2], the “AB-3167 MIC” value came to 8 µg/mL. In addition, the “KP-3700 MIC” value in data set [3] stood at 4 µg/mL. Further, in data set [4], the “PA-7 MIC” value was determined as 1 µg/mL.

As to `Cc1ccc(-c2ccc(CCC(C)(C(=O)NO)S(C)(=O)=O)cc2)o1` (centres unmarked) [Example 99], the “EC-1 MIC” value in data set [1] was 16 µg/mL. In addition, the “AB-3167 MIC” value in data set [2] is recorded as “≧64 mg/L”. Moreover, the “KP-3700 MIC” value in data set [3] is 32 µg/mL. In addition, the “PA-7 MIC” value in data set [4] came to 8 µg/mL.

For `COc1ccccc1-c1ccc(CCC(C)(C(=O)NO)S(C)(=O)=O)cc1` (centres unmarked) [Example 100], in data set [1], the “EC-1 MIC” value is 32 µg/mL. The “AB-3167 MIC” value in data set [2] was “≧64 mg/L”. In data set [3], the “KP-3700 MIC” value is given as “≧64 mg/L”. The “PA-7 MIC” value in data set [4] is 8 µg/mL.

As for `Cn1cc(-c2ccc(CCC(C)(C(=O)NO)S(C)(=O)=O)cc2)cn1` (centres unmarked) [Example 101], the “EC-1 MIC” value in data set [1] came to 32 µg/mL. Besides, the “AB-3167 MIC” value in data set [2] was “≧64 mg/L”. Moreover, in data set [3], the “KP-3700 MIC” value stood at 32 µg/mL. In data set [4], the “PA-7 MIC” value worked out at 8 µg/mL.

On to `CC(C)c1ccc(-c2ccc(CCC(C)(C(=O)NO)S(C)(=O)=O)cc2)cc1` (centres unmarked) [Example 102], for which the “EC-1 MIC” value in data set [1] was 2 µg/mL. Besides, the “AB-3167 MIC” value in data set [2] was determined as 4 µg/mL. Further, the “KP-3700 MIC” value in data set [3] came to 8 µg/mL. The “PA-7 MIC” value in data set [4] was found to be 4 µg/mL.

Turning to `CC(CCc1ccc(-c2ccco2)cc1)(C(=O)NO)S(C)(=O)=O` (centres unmarked) [Example 103], the “EC-1 MIC” value in data set [1] turned out to be 8 µg/mL. Also, the “AB-3167 MIC” value in data set [2] came out at 32 µg/mL. Besides, the “KP-3700 MIC” value in data set [3] was found to be 16 µg/mL. Further, the “PA-7 MIC” value in data set [4] was 4 µg/mL.

For `CC(CCc1ccc(-c2ccccc2C#N)cc1)(C(=O)NO)S(C)(=O)=O` (centres unmarked) [Example 105], the “EC-1 MIC” value in data set [1] worked out at 8 µg/mL. In addition, the “AB-3167 MIC” value in data set [2] is “≧64 mg/L”. Also, in data set [3], the “KP-3700 MIC” value worked out at 32 µg/mL. In data set [4], the “PA-7 MIC” value is 16 µg/mL.

On to `CC(CCc1ccc(-c2ccc(CC#N)cc2)cc1)(C(=O)NO)S(C)(=O)=O` (centres unmarked) [Example 106], for which the “EC-1 MIC” value in data set [1] came out at 2 µg/mL. Also, the “AB-3167 MIC” value in data set [2] is on record as “≧64 mg/L”. Besides, the “KP-3700 MIC” value in data set [3] stood at 8 µg/mL. Moreover, the “PA-7 MIC” value in data set [4] amounted to 1 µg/mL.

In the case of `C[C@@](CCc1ccc(-c2ccc(F)cc2)cc1)(C(=O)NO)S(C)(=O)=O` [Example 110], the “EC-1 MIC” value in data set [1] stood at 2 µg/mL. Further, in data set [2], the “AB-3167 MIC” value is 8 µg/mL. The “KP-3700 MIC” value in data set [3] is 4 µg/mL. Moreover, the “PA-7 MIC” value in data set [4] was found to be 0.25 µg/mL.

In the case of `CC(CCc1ccc(-c2ccc(CN)cc2)cc1)(C(=O)NO)S(C)(=O)=O` (centres unmarked) [Example 111], in data set [1], the “EC-1 MIC” value is given as “≧64 mg/L”. Further, the “AB-3167 MIC” value in data set [2] is recorded as “≧64 mg/L”. Also, the “KP-3700 MIC” value in data set [3] is “≧64 mg/L”. The “PA-7 MIC” value in data set [4] was found to be 32 µg/mL.

As for `CC(CCc1ccc(-c2ccc(CO)cc2)cc1)(C(=O)NO)S(C)(=O)=O` (centres unmarked) [Example 112], the “EC-1 MIC” value in data set [1] was “≧64 mg/L”. The “AB-3167 MIC” value in data set [2] is given as “≧64 mg/L”. The “KP-3700 MIC” value in data set [3] was “≧64 mg/L”. In data set [4], the “PA-7 MIC” value amounted to 4 µg/mL.

`CC(CCc1ccc(-c2ccc(CCN)cc2)cc1)(C(=O)NO)S(C)(=O)=O` (centres unmarked) [Example 114]: in data set [1], the “EC-1 MIC” value was “≧64 mg/L”. Also, the “AB-3167 MIC” value in data set [2] was “≧64 mg/L”. Besides, the “KP-3700 MIC” value in data set [3] is reported as “≧64 mg/L”. Besides, in data set [4], the “PA-7 MIC” value turned out to be 16 µg/mL.

Consider `CC(CCc1ccc(-c2ccc(OCCN)cc2)cc1)(C(=O)NO)S(C)(=O)=O` (centres unmarked) [Example 116], for which the “EC-1 MIC” value in data set [1] is “≧64 mg/L”. For the same molecule, the “AB-3167 MIC” value in data set [2] was “≧64 mg/L”. Further, in data set [3], the “KP-3700 MIC” value was “≧64 mg/L”. Further, the “PA-7 MIC” value in data set [4] turned out to be 4 µg/mL.

As for `CC(CCc1ccc(-c2ccc(OCCCN)cc2)cc1)(C(=O)NO)S(C)(=O)=O` (centres unmarked) [Example 117], the “EC-1 MIC” value in data set [1] is recorded as “≧64 mg/L”. The “AB-3167 MIC” value in data set [2] is recorded as “≧64 mg/L”. Besides, in data set [3], the “KP-3700 MIC” value is listed as “≧64 mg/L”. The “PA-7 MIC” value in data set [4] amounted to 8 µg/mL.

For `CC(CCc1ccc(-c2ccc(OCCCCN)cc2)cc1)(C(=O)NO)S(C)(=O)=O` (centres unmarked) [Example 118], the “EC-1 MIC” value in data set [1] is 32 µg/mL. In addition, the “AB-3167 MIC” value in data set [2] is recorded as “≧64 mg/L”. Further, the “KP-3700 MIC” value in data set [3] is on record as “≧64 mg/L”. In addition, the “PA-7 MIC” value in data set [4] was found to be 16 µg/mL.

Regarding `CC(CCc1ccc(-c2ccc(F)cc2)nc1)(C(=O)NO)S(C)(=O)=O` (centres unmarked) [Example 119], in data set [1], the “EC-1 MIC” value amounted to 16 µg/mL. The “AB-3167 MIC” value in data set [2] is given as “≧64 mg/L”. Moreover, the “KP-3700 MIC” value in data set [3] is listed as “≧64 mg/L”. Moreover, the “PA-7 MIC” value in data set [4] amounted to 8 µg/mL.

As to `COc1ccc(-c2ccc(CCC(C)(C(=O)NO)S(C)(=O)=O)cn2)cc1` (centres unmarked) [Example 120], the “EC-1 MIC” value in data set [1] came out at 4 µg/mL. Further, the “AB-3167 MIC” value in data set [2] was “≧64 mg/L”. Further, in data set [3], the “KP-3700 MIC” value worked out at 16 µg/mL. Further, the “PA-7 MIC” value in data set [4] was found to be 8 µg/mL.

Regarding `CSc1ccc(-c2ccc(CCC(C)(C(=O)NO)S(C)(=O)=O)cn2)cc1` (centres unmarked) [Example 121], the “EC-1 MIC” value in data set [1] worked out at 1 µg/mL. The “AB-3167 MIC” value in data set [2] is on record as “≧64 mg/L”. The “KP-3700 MIC” value in data set [3] amounted to 4 µg/mL. Also, in data set [4], the “PA-7 MIC” value came to 4 µg/mL.

As to `CC(CCc1ccc(-c2ccc(C#N)cc2)nc1)(C(=O)NO)S(C)(=O)=O` (centres unmarked) [Example 122], the “EC-1 MIC” value in data set [1] is 16 µg/mL. In data set [2], the “AB-3167 MIC” value is listed as “≧64 mg/L”. Moreover, the “KP-3700 MIC” value in data set [3] was “≧64 mg/L”. Further, in data set [4], the “PA-7 MIC” value amounted to 8 µg/mL.

For `CC(CCc1ccc(-c2cc(C(F)(F)F)c(C#N)cn2)cc1)(C(=O)NO)S(C)(=O)=O` (centres unmarked) [Example 124], the “EC-1 MIC” value in data set [1] came to 8 µg/mL. In addition, in data set [2], the “AB-3167 MIC” value was “≧64 mg/L”. In data set [3], the “KP-3700 MIC” value was “≧64 mg/L”. In data set [4], the “PA-7 MIC” value was determined as 8 µg/mL.

On to `CC(CCc1ccc(-c2ccc(C#N)c(C#N)c2)cc1)(C(=O)NO)S(C)(=O)=O` (centres unmarked) [Example 125], for which, in data set [1], the “EC-1 MIC” value was 8 µg/mL. Moreover, the “AB-3167 MIC” value in data set [2] is given as “≧64 mg/L”. The “KP-3700 MIC” value in data set [3] was 32 µg/mL. Besides, the “PA-7 MIC” value in data set [4] came out at 4 µg/mL.

`CC(CCc1ccc(-c2ccc(C#N)cn2)cc1)(C(=O)NO)S(C)(=O)=O` (centres unmarked) [Example 129]: in data set [1], the “EC-1 MIC” value amounted to 16 µg/mL. Further, the “AB-3167 MIC” value in data set [2] is reported as “≧64 mg/L”. Further, the “KP-3700 MIC” value in data set [3] is “≧64 mg/L”. For the same molecule, in data set [4], the “PA-7 MIC” value stood at 4 µg/mL.

In the case of `CC(CCc1ccc(-c2cnc(C#N)cn2)cc1)(C(=O)NO)S(C)(=O)=O` (centres unmarked) [Example 130], the “EC-1 MIC” value in data set [1] turned out to be 16 µg/mL. The “AB-3167 MIC” value in data set [2] is listed as “≧64 mg/L”. Moreover, the “KP-3700 MIC” value in data set [3] is “≧64 mg/L”. Also, in data set [4], the “PA-7 MIC” value was 16 µg/mL.

Consider `Cc1nc(-c2ccc(CCC(C)(C(=O)NO)S(C)(=O)=O)cc2)ccc1C#N` (centres unmarked) [Example 131], for which the “EC-1 MIC” value in data set [1] came out at 4 µg/mL. The “AB-3167 MIC” value in data set [2] is given as “≧64 mg/L”. Further, the “KP-3700 MIC” value in data set [3] turned out to be 16 µg/mL. Besides, the “PA-7 MIC” value in data set [4] is 4 µg/mL.
